Results taken from patent US10159268B2, “Reduced sodium food products” (GENERAL MILLS, INC., priority 2013, dated 2018).

Key:
[1] = Na-solution DAP test: trained panel rates saltiness of compounds in sodium solution; assay type: in vivo; set-up: key: DAP score; >3.1 indicates saltiness or salt enhancement; conditions: single compound in sodium solution; best DAP score of tested concentrations 0.1, 1 and 10 ppm; DAP score greater than 3.1 indicates saltiness or salt enhancement
Protocol: (§1) Briefly, each individual tested compound was placed in water and in sodium solution to test saltiness and saltiness enhancement potential. Tests in water were executed in a compound concentration of 10 ppm. Tests in sodium solution were executed in compound concentrations of 0.1, 1 and 10 ppm. Two control sodium solutions with known organoleptic salt intensities were provided as references for each test. The test for individual compounds was also conducted using simple broth instead of sodium solution. A number of compound combinations identified from the Na-solution DAP test were used for the broth DAP test. Tests were executed with a trained panel of 9-12 assessors. For Na-solution DAP tests, a DAP score of greater than 3.1 indicates saltiness or salt enhancement. The DAP score can be correlated with a sodium reduction potential by subtracting 3.1 from the DAP score. […] For broth DAP tests, a DAP score of greater than 7.6 indicates saltiness or salt enhancement. The DAP score can be correlated with a sodium reduction potential by subtracting 7.6 from the DAP score.

[2] = Broth DAP test: trained panel rates saltiness of compounds in simple broth; assay type: in vivo; set-up: key: DAP score; >7.6 indicates saltiness or salt enhancement in broth; conditions: single compound in simple broth; best DAP score of tested concentrations 0.1, 1 and 10 ppm; DAP score greater than 7.6 indicates saltiness or salt enhancement
Protocol: as §1

## COc1cc(COC(=O)CCCC/C=C/C(C)C)ccc1O [Compound 13, Capsiate]
[1]
  DAP in Na-Sol.: 3.8
[2]
  DAP in Broth: 7.9

## C/C(=C\CC/C(C)=C/CC[C@@H]1[C@@]2(C)CCC(=O)C(C)(C)C2CC[C@@]1(C)O)CC/C=C(\C)C(=O)O (some centres unmarked) [Compound 52, Myrrhanone B]
[1]
  DAP in Na-Sol.: 3.6

## COc1cc(CC(C)C(C)Cc2ccc(O)c(OC)c2)ccc1O (centres unmarked) [Compound 49, Dihydrogualaretic acid]
[1]
  DAP in Na-Sol.: 3.6
[2]
  DAP in Broth: 8.2

## C=C1C(=O)OC2CC3(C)CCCC(C)C3=CC12 (centres unmarked) [Compound 80a, Alantolactone]
[1]
  DAP in Na-Sol.: 3.9

## CCCCCCCC(=O)CCc1ccc(O)c(OC)c1 [Compound 7, [6]-Paradol or [6]-Gingerone]
[1]
  DAP in Na-Sol.: 3.7

## CCCCC/C=C/C(=O)CCc1ccc(O)c(OC)c1 [Compound 4, 6-Shogaol]
[1]
  DAP in Na-Sol.: 3.5

## C=CC(C)(CC/C=C(\C)CC/C=C(\C)CC/C=C(/C)COC1OC(C)C(O)C(OC2OC(COC3OC(C)C(O)C(O)C3OC(=O)/C(C)=C/C(O)C/C(C)=C/CC/C(C)=C/CCC(C)(C=C)OC3OC(CO)C(O)C(O)C3OC3OC(CO)C(O)C(O)C3O)C(O)C(O)C2O)C1O)OC1OC(CO)C(O)C(O)C1OC1OC(CO)C(O)C(O)C1O (centres unmarked) [Compound 92, Capsianoside D]
[1]
  DAP in Na-Sol.: 4

## CC1(C)CC2C1CCC1(C)CC2(O)CCC1O (centres unmarked) [Compound 56, Senecrassidiol]
[1]
  DAP in Na-Sol.: 4
[2]
  DAP in Broth: 7.7

## C[C@@H]1C[C@@H]2O[C@@]3(O[C@@H]2C(C)(C)O)C(O)[C@@]2(C)C4CCC5C(C)(C)[C@@H](OC6OC[C@H](O)[C@@H](O)[C@@H]6O)CC[C@@]56C[C@@]46CC[C@]2(C)C13 (stereo partly drawn) [Compound 41, Cimigoside; b-D-Xylopyranoside]
[1]
  DAP in Na-Sol.: 3.9
[2]
  DAP in Broth: 7.5

## C=CC(C)(O)CC/C=C(\C)C(=O)OC1C(OCC2OC(OC(=O)C34CCC(C)(C)CC3C3=CCC5C6(C)CCC(OC7OC(COC8OCC(O)C(O)C8OC8OCC(O)C(O)C8O)C(O)C(O)C7O)C(C)(C)C6CCC5(C)C3(C)CC4O)C(OC3OC(C)C(OC4OCC(O)C(OC5OCC(O)C(O)C5O)C4O)C(O)C3O)C(OC(=O)/C(C)=C/CCC(C)(O)C=C)C2O)OC(C)C(O)C1O (centres unmarked) [Compound 35]
[1]
  DAP in Na-Sol.: 3.7
[2]
  DAP in Broth: 8.1

## CC(=O)OC1C(O)COC(OC2C(O)C(C)OC(OC(C)(CCC=C(C)C)C3C(O)CC4(C)C3CCC3C5(C)CCC(OC6OCC(O)C(O)C6O)C(C)(C)C5CCC34C)C2O)C1O (centres unmarked) [Compound 38]
[1]
  DAP in Na-Sol.: 3.9
[2]
  DAP in Broth: 8.1

## C=C1C2CCC3C4(C)CCCC(C)(C(=O)O)C4CCC3(C2)C1OC(C)=O (centres unmarked) [Compound 94, Xylopic acid]
[1]
  DAP in Na-Sol.: 4.2

## C/C=C1\C(=O)CC2C3CCC4=CC(=O)CC[C@]4(C)C3CCC12C (some centres unmarked) [Compound 75, (Z)-Guggulsterone]
[1]
  DAP in Na-Sol.: 3.6

## COC1CC(OC2CCC3(C=O)C(CCC4C3CCC3(C)C(C5=CC(=O)OC5)CCC43O)C2)OC(C)C1O (centres unmarked) [Compound 77, Apocannoside]
[1]
  DAP in Na-Sol.: 3.4
[2]
  DAP in Broth: 8.1

## C=CC(C)(CC/C=C(\C)CC/C=C(\C)CC/C=C(/C)COC1OC(C)C(O)C(OC2OC(COC3OC(C)C(O)C(O)C3OC(=O)/C(C)=C/CC/C(C)=C/CC/C(C)=C/CCC(C)(C=C)OC3OC(CO)C(O)C(O)C3OC3OC(CO)C(O)C(O)C3O)C(O)C(O)C2O)C1O)OC1OC(CO)C(O)C(O)C1OC1OC(CO)C(O)C(O)C1O (centres unmarked) [Compound 91, Capsianoside E]
[1]
  DAP in Na-Sol.: 3.7

## CCC(O)CC(=O)CCc1ccccc1 (centres unmarked) [Compound 20, a 1-Ph-5-OH-3-heptanone]
[1]
  DAP in Na-Sol.: 4

## CC(C)C(=O)c1c2c(c3oc(=O)cc(-c4ccccc4)c3c1O)CC(C(C)(C)O)O2 (centres unmarked) [Compound 60, Mammea A/AD cyclo F]
[1]
  DAP in Na-Sol.: 3.8
[2]
  DAP in Broth: 8.1

## COc1ccc(-c2c(O)c3c(OC)c4c(cc3oc2=O)OC(C)(C)C=C4)cc1 [Compound 26, Robustic acid]
[1]
  DAP in Na-Sol.: 3.4

## CC(C)CNC(=O)/C=C/C=C/CCCCCC/C=C/c1ccc2c(c1)OCO2 [Compound 15, Guineensine]
[1]
  DAP in Na-Sol.: 3.5
[2]
  DAP in Broth: 8.1

## CCCCC/C=C\CCCCCCc1cc(=O)c2ccccc2n1C [Compound 17, Evocarpine]
[1]
  DAP in Na-Sol.: 3.6
[2]
  DAP in Broth: 8.2

## C=CCCCCCCC(C(=O)O)C(O)CC(=O)O (centres unmarked) [Compound 81, a 2-octenyl-3-hydroxy-1,5-pentanedioic acid]
[1]
  DAP in Na-Sol.: 3.2
[2]
  DAP in Broth: 7.8

## CCCCCC(CC(CCc1ccc(O)c(OC)c1)OC(C)=O)OC(C)=O (centres unmarked) [Compound 3, [6]-Gingerdiacetate]
[1]
  DAP in Na-Sol.: 4.1
[2]
  DAP in Broth: 8.8

## CCCCC/C=C/C=C/C(O)CCCCCCCC(=O)O (centres unmarked) [Compound 88, Dimorphecolic acid]
[1]
  DAP in Na-Sol.: 3.2
[2]
  DAP in Broth: 8.0

## CCCCCCCCC/C=C/C(=O)CCc1ccc(O)c(OC)c1 [Compound 2, [10]-Shogaol]
[1]
  DAP in Na-Sol.: 3.5
[2]
  DAP in Broth: 7.8

## O=C(/C=C/CC/C=C/c1ccc2c(c1)OCO2)N1CCCCC1 [Compound 14, Pipersintenamide]
[1]
  DAP in Na-Sol.: 3.6

## O=c1c2ccccc2nc2n1CCc1c-2[nH]c2ccccc12 [Compound 57, Rutaecarpine]
[1]
  DAP in Na-Sol.: 3.1

## COc1cc(C2c3cc4c(cc3CC3COC(=O)C32)OCO4)cc(OC)c1OC (centres unmarked) [Compound 59, Isoanthricin]
[1]
  DAP in Na-Sol.: 3.3
[2]
  DAP in Broth: 7.9

## CC/C=C\C/C=C\C/C=C\CCCCCCCC(=O)O [Compound 89, Linolenic acid]
[1]
  DAP in Na-Sol.: 3.7
[2]
  DAP in Broth: 7.6

## C=CCCCCCCCCCCC[C@H](O)C[C@H](O)CO [Compound 82, 16-Heptadecene-1,2,4-triol; Avocadene]
[1]
  DAP in Na-Sol.: 3.8
[2]
  DAP in Broth: 8.3

## COc1c(OC)c(OC)c2c(c1OC)c(=O)c1ccccc1n2C [Compound 23, Melicopicine]
[1]
  DAP in Na-Sol.: 2.9
[2]
  DAP in Broth: 8.3

## CCC=CC(=O)CCc1ccccc1 [Compound 11, a 1-Ph-4-hepten-3-one]
[1]
  DAP in Na-Sol.: 2.6
[2]
  DAP in Broth: 8.1

## CCC=CC=CC(O)CC=CCCCCCCCC(=O)O (centres unmarked) [Compound 86, 12-hydroxy-9,13,15-Octadecatrienoic acid]
[1]
  DAP in Na-Sol.: 3.9
[2]
  DAP in Broth: 8.0

## Brevifolin [Compound 53]
[1]
  DAP in Na-Sol.: 3.7
[2]
  DAP in Broth: 8.5

## CC(=O)O[C@@H]1C[C@H]2C(C)(C)C(=O)C=C[C@]2(C)[C@H]2CC[C@]3(C)C(=CC(=O)[C@H]3c3ccoc3)[C@@]21C [Compound 74, Azadiradione]
[1]
  DAP in Na-Sol.: 3.2
[2]
  DAP in Broth: 7.7

## CCCCCCCCCCNC(C)=O [Compound 84, N-Decyl acetamide]
[1]
  DAP in Na-Sol.: 3.8
[2]
  DAP in Broth: 8.1

## C=C1C(=O)O[C@@H]2C[C@@]3(C)CCCC(=C)[C@@H]3C[C@H]12 [Compound 80b, Isoalantolactone]
[1]
  DAP in Na-Sol.: 3.9

## C=C[C@@]1(C)CC(=O)C2[C@]3(C)C(C[C@@H](O)[C@@]2(O)C1=O)C(C)(C)[C@H](OC(C)=O)[C@H](OC(C)=O)[C@@H]3OC(=O)c1ccccc1 (some centres unmarked) [Compound 32, Orthosiphol I]
[1]
  DAP in Na-Sol.: 3.5
[2]
  DAP in Broth: 8.1

## C=CC(C)(O)CC[C@@]1(C)C2=C([C@H](OC(C)=O)[C@H](OC(C)=O)[C@H]1C)C(C)(C)CCC2 (some centres unmarked) [Compound 29, Vitetrifolin D]
[1]
  DAP in Na-Sol.: 3.5
[2]
  DAP in Broth: 8.0

## COc1c(CC=C(C)C)c(=O)n(C)c2c(OC)cccc12 [Compound 25, O-Methylglycosolone]
[1]
  DAP in Na-Sol.: 3.9

## COc1c2ccoc2cc2oc(=O)ccc12 [Compound 62, Bergapten]
[1]
  DAP in Na-Sol.: 3.9
[2]
  DAP in Broth: 8.0

## COc1c(CC=C(C)C)c(=O)[nH]c2ccccc12 [Compound 61, Atanine]
[1]
  DAP in Na-Sol.: 3.6

## a pentadecatrienyl-1,3-benzenediol [Compound 10]
[1]
  DAP in Na-Sol.: 3.9
[2]
  DAP in Broth: 7.9

## CCCCCCCCC(=O)CCc1ccc(O)c(OC)c1 [Compound 6, [7]-Paradol]
[1]
  DAP in Na-Sol.: 3.8

## CCC=CCC=CC=CC(O)CCCCCCCC(=O)O (centres unmarked) [Compound 85, 9-hydroxy-10,12,15-Octadecatrienoic acid]
[1]
  DAP in Na-Sol.: 2.9

## COc1cc(CNC(=O)CCCCCCC(C)C)ccc1O [Compound 21, Dihydrocapsaicin]
[1]
  DAP in Na-Sol.: 4

## COc1cc(O)c(C(/C=C/CC(O)CCc2ccc(O)cc2)c2ccc(O)cc2)c2c1C(=O)CC(c1ccc(O)cc1)O2 (centres unmarked) [Compound 50, Epicalyxin C]
[1]
  DAP in Na-Sol.: 4

## CCCCCC(CC(=O)CCc1ccc(O)c(OC)c1)OC (centres unmarked) [Compound 8, 5-methoxy-[6]-Gingerol]
[1]
  DAP in Na-Sol.: 4

## CCCCC[C@H](O)CC(=O)CCc1ccc(O)c(OC)c1 [Compound 5, [6]-Gingerol]
[1]
  DAP in Na-Sol.: 3.6

## C[C@@H]1C[C@H]2OC(=O)[C@@]3(C)CCC[C@](C)(C23)[C@@]1(O)CCc1ccoc1 (some centres unmarked) [Compound 31, Marrubin]
[1]
  DAP in Na-Sol.: 3.2

## CCCCCCC[C@H](O)CC(=O)CCc1ccc(O)c(OC)c1 [Compound 9, 8-Gingerol]
[1]
  DAP in Na-Sol.: 3.8

## CC(=O)OC1CC(C)C2(CCC3(COC(=O)C3)O2)C2(C)CCCC(C)(C)C12 (centres unmarked) [Compound 30]
[1]
  DAP in Na-Sol.: 3.1

## COc1c2c(cc3oc(=O)ccc13)OC(C)(C)C=C2 [Compound 27, Xanthoxyletin]
[1]
  DAP in Na-Sol.: 3.4

## COc1cc2oc(=O)ccc2c(OC)c1CC=C(C)C [Compound 28, Toddaculin]
[1]
  DAP in Na-Sol.: 3.6
